Test results from patent publication US20230143345A1, “PHARMACEUTICAL COMPOSITION FOR PREVENTION OR TREATMENT OF DISEASES CAUSED BY SARS-COV-2” (DONG WHA PHARM. CO., LTD., priority 2020, published 2023).
Where two headings read alike, the source gives them in different places.

Experiments:
SARS-CoV-2 [1] = experiment: microbe, parasite or virus in culture; format: cell-based
SARS-CoV-2 [2] = experiment: microbe, parasite or virus in culture; format: cell-based; settings: Severe acute respiratory syndrome coronavirus 2, Vero, read-out: SARS-CoV-2 virus 50% inhibitory ability (IC50 value)
in vitro = settings: African green monkey
Vero cell lines = experiment: Cell viability of Vero cells in the SARS-CoV-2 inhibition experiment (Example 2)

COc1cc2cc3c(c(-c4cc5c(cc4O)OCO5)c2cc1OC)C(=O)OC3 [6′ hydroxyl justicidin-B, 9-(6-hydroxy-benzo[1,3]dioxol-5-yl)-6,7-dimethoxy-3H-naphtho[2,3-c]furan-1-one]
IC50 (SARS-CoV-2 [1]; Severe acute respiratory syndrome coronavirus 2, Vero, 24 h, read-out: SARS-CoV-2 virus 50% inhibitory ability (IC50 value)): 1060 nM | inhibition at 0.1 µM (SARS-CoV-2 [1]; Severe acute respiratory syndrome coronavirus 2, concentration 0.10 uM, Vero cells, 24 h, read-out: SARS-CoV-2 virus inhibitory ability (%, average ± standard deviation)): 1.45 ± 1.16% | inhibition at 0.2 µM (SARS-CoV-2 [1]; Severe acute respiratory syndrome coronavirus 2, concentration 0.20 uM, Vero cells, 24 h, read-out: SARS-CoV-2 virus inhibitory ability (%, average ± standard deviation)): -1.71 ± 4.34% | inhibition at 0.39 µM (SARS-CoV-2 [1]; Severe acute respiratory syndrome coronavirus 2, concentration 0.39 uM, Vero cells, 24 h, read-out: SARS-CoV-2 virus inhibitory ability (%, average ± standard deviation)): 3.39 ± 3.95% | inhibition at […] (SARS-CoV-2 [1]; Severe acute respiratory syndrome coronavirus 2, concentration 0.78 uM, Vero cells, 24 h, read-out: SARS-CoV-2 virus inhibitory ability (%, average ± standard deviation)): 35.6 ± 0.69% | inhibition at 1.56 µM (SARS-CoV-2 [1]; Severe acute respiratory syndrome coronavirus 2, concentration 1.56 uM, Vero cells, 24 h, read-out: SARS-CoV-2 virus inhibitory ability (%, average ± standard deviation)): 68.6 ± 3.12% | inhibition at 3.13 µM (SARS-CoV-2 [1]; Severe acute respiratory syndrome coronavirus 2, concentration 3.13 uM, Vero cells, 24 h, read-out: SARS-CoV-2 virus inhibitory ability (%, average ± standard deviation)): 95.86 ± 0.86% | inhibition at 6.25 µM (SARS-CoV-2 [1]; Severe acute respiratory syndrome coronavirus 2, concentration 6.25 uM, Vero cells, 24 h, read-out: SARS-CoV-2 virus inhibitory ability (%, average ± standard deviation)): 99.74 ± 0.24% | inhibition at 12.5 µM (SARS-CoV-2 [1]; Severe acute respiratory syndrome coronavirus 2, concentration 12.5 uM, Vero cells, 24 h, read-out: SARS-CoV-2 virus inhibitory ability (%, average ± standard deviation)): 98.9 ± 1.49% | inhibition at 25 µM (SARS-CoV-2 [1]; Severe acute respiratory syndrome coronavirus 2, concentration 25 uM, Vero cells, 24 h, read-out: SARS-CoV-2 virus inhibitory ability (%, average ± standard deviation)): 99.79 ± 0.6% | inhibition at 50 µM (SARS-CoV-2 [1]; Severe acute respiratory syndrome coronavirus 2, concentration 50 uM, Vero cells, 24 h, read-out: SARS-CoV-2 virus inhibitory ability (%, average ± standard deviation)): 97.8 ± 2.47% | SARS-CoV-2 inhibitory ability (in words) (SARS-CoV-2 [1]; Vero cells, comparison at IC50 values with Remdesivir, Lopinavir and Chloroquine): remarkably more excellent | IC50 (SARS-CoV-2 [2]): 50 nM | CC50 (in vitro): 314 µM | Cell viability (%, average ± standard deviation) (Vero cell lines; concentration 0.10 uM): 100.66 ± 0.73% | Cell viability (%, average ± standard deviation) (Vero cell lines; concentration 0.20 uM): 104.63 ± 0.44% | Cell viability (%, average ± standard deviation) (Vero cell lines; concentration 0.39 uM): 105.17 ± 0.85% | Cell viability (%, average ± standard deviation) (Vero cell lines; concentration 1.56 uM): 107.86 ± 0.60% | Cell viability (%, average ± standard deviation) (Vero cell lines; concentration 3.13 uM): 105.46 ± 0.38% | Cell viability (%, average ± standard deviation) (Vero cell lines; concentration 6.25 uM): 103.44 ± 1.31% | Cell viability (%, average ± standard deviation) (Vero cell lines; concentration 12.5 uM): 101.11 ± 0.36% | Cell viability (%, average ± standard deviation) (Vero cell lines; concentration 25 uM): 97.80 ± 1.29% | Cell viability (%, average ± standard deviation) (Vero cell lines; concentration 50 uM): 93.38 ± 0.72%
